Inhibition and A data for two compounds are collected here from EP4691473A1, “PLATYCLADUS ORIENTALIS EXTRACT, PREPARATION METHOD THEREFOR AND USE THEREOF” (Beijing Academy of TCM Beauty Supplements Co., Ltd., priority 2023, dated 2024).

The target of one test is 5α-reductase (Mus musculus, UniProt Q68FF9). Kind of test: 5α-Reductase Inhibition Test (decrease in absorbance at 340 nm, NADPH/testosterone). In kind it is biochemical. The conditions noted are these: for A: absorbance decrease at 340 nm. As for the experimental part:
• (1) Test drug: Sample of Example 52 • (2) Positive control drug: Finasteride, a product of Merck Sharp & Dohme Limited; Appearance: Film-coated tablets, white after removal of the coating; Specification: 5 mg/tablet; Batch number: 0022050. Storage conditions: light-shielded, airtight, and stored at room temperature. • (3) Drug preparation: The sample of Example 52 was tested at 10 concentrations: 35 mg/mL (solute: the sample of Example 52, solvent: 20% aqueous ethanol solution) was adopted as the initial concentration, and nine 2.5-fold gradient dilutions were made by using 20% aqueous ethanol solution; and five 2-fold gradient dilutions of the positive control finasteride were made by using anhydrous ethanol. • (4) Reagents: Reduced coenzyme II (NADPH), a product of Sigma, Catalog number N7505, Batch number 041939; testosterone (T), a product of Merck, Catalog number T-037; Batch number FE03112002; Tris buffer: Shanghai Yuanye Biotechnology Co., Ltd., Batch number J17HR10516A. • (5) Test instrument: ZDN microplate reader, a product of BioTek.
Mouse liver was obtained by dissection, and was added into a Tris buffer at a ratio of 1:5 for homogenization at 0°C. The homogenized liver was centrifuged at 10000g for 15 minutes, the supernatant was centrifuged at 55000g for another hour, and then the supernatant was placed at 4°C for later use. Reagents and samples were added according to the reaction system. Sample of Example 52 and finasteride sample at each dilution were added 4 times. After incubation at 37°C for 60 minutes, the decrease in absorbance ΔA at 340nm was measured. Inhibition rate (%) = (blank ΔA−sample ΔA)/(blank ΔA) × 100 [formula]
The 5α-reductase reaction system is shown in Table 16: Table 16 Reagent amount for the reaction system (µL)

A further test concerns Malassezia. Put plainly: Malassezia antibacterial test (microbroth method, OD600 after 72 hours). The format is cell-based. The conditions noted are these: Ketoconazole 4µg/mL, read-out: Malassezia inhibition rate, positive control. As for the experimental part: A culture medium and Malassezia were mixed thoroughly by shaking until no sediment was present at the bottom. A sterile syringe was used to pipette 200-800 µL of the bacterial suspension into fresh culture medium and incubate at 30°C in a biochemical incubator. After 2-3 days of incubation, the sample was subcultured.
A sterile malt extract culture medium was transferred into a sterile 50mL centrifuge tube. The sterile malt extract culture medium was centrifuged at 25°C and 3500 rpm for 10 minutes. The supernatant was transferred to another sterile 50mL centrifuge tube for later use.
Each sample was diluted with fresh culture medium to a concentration of 50 mg/mL, 40 mg/mL, 30 mg/mL, 20 mg/mL, 10 mg/mL, or 5 mg/mL.
The culture medium and Malassezia were mixed thoroughly by shaking and transferred to a sterile 50mL centrifuge tube. The mixture was centrifuged at 25°C and 1000 rpm for 30 seconds. The supernatant was transferred to a sterile 50 mL centrifuge tube and centrifuge at 25°C and 3500 rpm for 10 minutes.
A microplate reader was set at a wavelength of 600 nm. […] The OD600 value of the bacterial suspension was detected at 600 nm. […]
The required volume of bacterial suspension was calculated. […]
The sterile 96-well culture plate was placed in a 30°C incubator. After 72 hours of incubation, the absorbance at 600nm was recorded. […]
Background: Dilution methods test growth across graded concentrations, often in twofold steps.

Chain of 5α-reductase (Q68FF9 whole entry): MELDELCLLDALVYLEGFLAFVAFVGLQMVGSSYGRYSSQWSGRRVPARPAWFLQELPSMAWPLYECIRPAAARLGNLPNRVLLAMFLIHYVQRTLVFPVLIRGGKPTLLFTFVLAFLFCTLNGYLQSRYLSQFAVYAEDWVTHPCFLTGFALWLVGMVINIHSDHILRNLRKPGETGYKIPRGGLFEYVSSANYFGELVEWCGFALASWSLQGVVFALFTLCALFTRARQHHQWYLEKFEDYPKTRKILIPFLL

Broadly, the inhibition is the change of the read-out against control, counted positive when it falls. `CC(C)(C)NC(=O)[C@H]1CC[C@H]2[C@@H]3CC[C@H]4NC(=O)C=C[C@]4(C)[C@H]3CC[C@]12C` [Finasteride]: the inhibition at 0.003 µg/mL at 5α-reductase (Finasteride 0.003 µg/mL, read-out: Inhibition rate) was 6.12%. At 5α-reductase (Finasteride 0.006 µg/mL, read-out: Inhibition rate), the inhibition at 0.006 µg/mL was 15.4%. For the same compound, the inhibition at 0.012 µg/mL at 5α-reductase (Finasteride 0.012 µg/mL, read-out: Inhibition rate) is 26.3%. Further, the inhibition at 0.025 µg/mL at 5α-reductase (Finasteride 0.025 µg/mL, read-out: Inhibition rate) turned out to be 39.2%. Also, at 5α-reductase (Finasteride 0.050 µg/mL, read-out: Inhibition rate), the inhibition at 0.05 µg/mL stood at 63.1%. Also, the A worked out at 0.10 at 5α-reductase (Finasteride 0.003 µg/mL), 0.08 on 5α-reductase (Finasteride 0.012 µg/mL), 0.07 on 5α-reductase (Finasteride 0.025 µg/mL) and 0.04 on 5α-reductase (Finasteride 0.050 µg/mL).

Turning to `CC(=O)N1CCN(c2ccc(OCC3COC(Cn4ccnc4)(c4ccc(Cl)cc4Cl)O3)cc2)CC1` (stereo not shown) [Ketoconazole], in the test with Malassezia, the inhibition at 4 µg/mL worked out at 95 ± 3.59%.
